What all share (conditions): banded MIC grade
For one assay, the system named is Aspergillus fumigatus. Kind of assay: Minimum inhibitory concentration, YAG medium. It is filed as cell-based. The essentials: (§1)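 Broth microdilution in YAG medium; inoculum 1-2×10^4 cfu/mL; compound 50-0.05 mg/L in doubling steps, from DMSO stock. 24 h, 35° C. Read OD 485 nm; MIC = lowest conc. inhibiting growth >70% vs no-drug control, in mg/L.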
The test system of a further assay is A. fumigatus 210. Kind of assay: Minimum inhibitory concentration, YAG medium. In kind it is cell-based, Aspergillus fumigatus. The essentials: as §1
The subject of another assay is A. terreus 49. As to the kind of experiment: Minimum inhibitory concentration, YAG medium. In kind it is cell-based, Aspergillus terreus. The essentials:
(§2)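 Compound from a 5 mg/mL DMSO stock was further diluted in sterile water, then serially doubled in water and plated with Aspergillus spp. spores. After 24 hrs at 35° C, growth was monitored by optical density at 485 nm; MICs are given in mg/L.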

A further assay has as its system Aspergillus flavus. As to the kind of experiment: Minimum inhibitory concentration, YAG medium. It is filed as cell-based. Put shortly:
as §2

Another assay relates to Aspergillus niger. Kind of assay: Minimum inhibitory concentration, YAG medium. In kind it is cell-based. The essentials: as §2
Another assay concerns Aspergillus terreus. As to the kind of experiment: Minimum inhibitory concentration, YAG medium. It is filed as cell-based. The essentials:
as §2

A further assay relates to C. albicans. Kind of assay: Minimum inhibitory concentration, RPMI medium. It is filed as cell-based. Put shortly:
(§3)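 Compound stock was made at 5 mg/mL in DMSO, diluted in sterile water and serially doubled in water, then tested in RPMI 1640 medium. Plates were incubated 24-48 hrs at 35° C, and growth was scored as optical density at 485 nm.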

In a further assay the test system is C. parapsilosis. Kind of assay: Minimum inhibitory concentration, RPMI medium. It is filed as cell-based. Put shortly: as §3
Another assay concerns C. tropicalis. Kind of assay: Minimum inhibitory concentration, RPMI medium. In kind it is cell-based. Put shortly: as §3

The text below walks through data of patent publication US20180201592A1, “2-AMINO-1,3,4-THIADIAZINE AND 2-AMINO-1,3,4-OXADIAZINE BASED ANTIFUNGAL AGENTS” (F2G Limited, priority 2015, published 2018).

For the molecule `COCCCCCC1=NN=C(N)SC1`, the “MIC grade, A. FUMIGATUS, YAG media” value in the assay with Aspergillus fumigatus is 4 (4: <0.2 mg/L). Also, in the assay with A. fumigatus 210, the “MIC grade, A. FUMIGATUS 210, YAG media” value is recorded as 4 (4: <0.2 mg/L). Further, the “MIC grade, A. TERREUS 49, YAG media” value against A. terreus 49 was 4 (4: <0.2 mg/L). Moreover, the “MIC grade, A. FLAVUS, YAG media” value in the assay on Aspergillus flavus is reported as 4 (4: <0.2 mg/L). Further, in the assay on Aspergillus niger, the “MIC grade, A. NIGER, YAG media” value was 4 (4: <0.2 mg/L). Further, the “MIC grade, A. TERREUS, YAG media” value against Aspergillus terreus is reported as 4 (4: <0.2 mg/L). Moreover, the “MIC grade, C. ALBICANS, RPMI media” value against C. albicans was 4 (4: <1 mg/L). For the same molecule, the “MIC grade, C. PARAPSILOSIS, RPMI media” value in the assay on C. parapsilosis is 4 (4: <1 mg/L). The “MIC grade, C. TROPICALIS, RPMI media” value in the assay on C. tropicalis was 3 (3: 1-5 mg/L).

With `NC1=NN=C(CCCCCOc2ccccc2)CS1`, the “MIC grade, A. FUMIGATUS, YAG media” value against Aspergillus fumigatus is listed as 4 (4: <0.2 mg/L). For the same molecule, in the assay on A. fumigatus 210, the “MIC grade, A. FUMIGATUS 210, YAG media” value is 4 (4: <0.2 mg/L). Also, the “MIC grade, A. TERREUS 49, YAG media” value against A. terreus 49 is reported as 4 (4: <0.2 mg/L). For the same molecule, in the assay on Aspergillus flavus, the “MIC grade, A. FLAVUS, YAG media” value is recorded as 4 (4: <0.2 mg/L). Moreover, the “MIC grade, A. NIGER, YAG media” value with Aspergillus niger was 4 (4: <0.2 mg/L). For the same molecule, in the assay with Aspergillus terreus, the “MIC grade, A. TERREUS, YAG media” value is given as 4 (4: <0.2 mg/L). The “MIC grade, C. ALBICANS, RPMI media” value with C. albicans is on record as 4 (4: <1 mg/L). The “MIC grade, C. PARAPSILOSIS, RPMI media” value against C. parapsilosis is recorded as 4 (4: <1 mg/L). For the same molecule, in the assay with C. tropicalis, the “MIC grade, C. TROPICALIS, RPMI media” value is listed as 4 (4: <1 mg/L).

On to `NC1=NN=C2c3ccccc3CCC2S1` (stereo not drawn), for which the “MIC grade, A. FUMIGATUS, YAG media” value in the assay on Aspergillus fumigatus is 2 (2: 1-5 mg/L). For the same molecule, in the assay with A. fumigatus 210, the “MIC grade, A. FUMIGATUS 210, YAG media” value was 1 (1: ≥5 mg/L). Further, the “MIC grade, A. TERREUS 49, YAG media” value in the assay on A. terreus 49 is given as 2 (2: 1-5 mg/L). Moreover, in the assay with Aspergillus flavus, the “MIC grade, A. FLAVUS, YAG media” value was 1 (1: ≥5 mg/L). Besides, the “MIC grade, A. NIGER, YAG media” value with Aspergillus niger is 1 (1: ≥5 mg/L). Also, the “MIC grade, A. TERREUS, YAG media” value in the assay with Aspergillus terreus is 1 (1: ≥5 mg/L). For the same molecule, the “MIC grade, C. ALBICANS, RPMI media” value with C. albicans is reported as 1 (1: ≥20 mg/L). Besides, the “MIC grade, C. PARAPSILOSIS, RPMI media” value in the assay with C. parapsilosis is listed as 1 (1: ≥20 mg/L). Also, in the assay on C. tropicalis, the “MIC grade, C. TROPICALIS, RPMI media” value is on record as 1 (1: ≥20 mg/L).

Regarding `NC1=NNC2=C(CCCC2)S1`, in the assay on Aspergillus fumigatus, the “MIC grade, A. FUMIGATUS, YAG media” value is 2 (2: 1-5 mg/L). The “MIC grade, A. FUMIGATUS 210, YAG media” value against A. fumigatus 210 is recorded as 3 (3: 0.2-1 mg/L). Also, the “MIC grade, A. TERREUS 49, YAG media” value in the assay with A. terreus 49 was 2 (2: 1-5 mg/L). In addition, the “MIC grade, A. FLAVUS, YAG media” value in the assay on Aspergillus flavus is given as 1 (1: ≥5 mg/L). Besides, the “MIC grade, A. NIGER, YAG media” value with Aspergillus niger is 2 (2: 1-5 mg/L). Moreover, the “MIC grade, A. TERREUS, YAG media” value against Aspergillus terreus is listed as 2 (2: 1-5 mg/L). Besides, the “MIC grade, C. ALBICANS, RPMI media” value against C. albicans was 1 (1: ≥20 mg/L). For the same molecule, the “MIC grade, C. PARAPSILOSIS, RPMI media” value in the assay with C. parapsilosis was 1 (1: ≥20 mg/L). Besides, the “MIC grade, C. TROPICALIS, RPMI media” value against C. tropicalis is given as 1 (1: ≥20 mg/L).

In the case of `CCCCOC1CCC2=NN=C(N)SC2C1` (stereo not drawn), the “MIC grade, A. FUMIGATUS, YAG media” value against Aspergillus fumigatus is recorded as 1 (1: ≥5 mg/L). In addition, the “MIC grade, A. FUMIGATUS 210, YAG media” value in the assay on A. fumigatus 210 is 3 (3: 0.2-1 mg/L). In addition, in the assay on A. terreus 49, the “MIC grade, A. TERREUS 49, YAG media” value is reported as 2 (2: 1-5 mg/L). The “MIC grade, A. FLAVUS, YAG media” value against Aspergillus flavus is 2 (2: 1-5 mg/L). For the same molecule, the “MIC grade, A. NIGER, YAG media” value in the assay on Aspergillus niger is 2 (2: 1-5 mg/L). In addition, in the assay on Aspergillus terreus, the “MIC grade, A. TERREUS, YAG media” value was 2 (2: 1-5 mg/L). In the assay on C. albicans, the “MIC grade, C. ALBICANS, RPMI media” value is on record as 1 (1: ≥20 mg/L). In addition, the “MIC grade, C. PARAPSILOSIS, RPMI media” value against C. parapsilosis is listed as 1 (1: ≥20 mg/L). Further, the “MIC grade, C. TROPICALIS, RPMI media” value in the assay on C. tropicalis is 1 (1: ≥20 mg/L).

On to `CCCCOC(=O)CC1=NN=C(N)SC1`, for which, in the assay with Aspergillus fumigatus, the “MIC grade, A. FUMIGATUS, YAG media” value is listed as 2 (2: 1-5 mg/L). In addition, in the assay with A. fumigatus 210, the “MIC grade, A. FUMIGATUS 210, YAG media” value is 3 (3: 0.2-1 mg/L). Besides, the “MIC grade, A. TERREUS 49, YAG media” value against A. terreus 49 is reported as 3 (3: 0.2-1 mg/L). The “MIC grade, A. FLAVUS, YAG media” value in the assay with Aspergillus flavus was 2 (2: 1-5 mg/L). In addition, the “MIC grade, A. NIGER, YAG media” value in the assay on Aspergillus niger is on record as 3 (3: 0.2-1 mg/L). Besides, the “MIC grade, A. TERREUS, YAG media” value against Aspergillus terreus is on record as 2 (2: 1-5 mg/L). For the same molecule, the “MIC grade, C. ALBICANS, RPMI media” value with C. albicans was 1 (1: ≥20 mg/L). The “MIC grade, C. PARAPSILOSIS, RPMI media” value against C. parapsilosis is 3 (3: 1-5 mg/L). Further, in the assay with C. tropicalis, the “MIC grade, C. TROPICALIS, RPMI media” value is 1 (1: ≥20 mg/L).

Regarding `CCOC(=O)c1cccc(C2=NN=C(N)SC2)c1`, the “MIC grade, A. FUMIGATUS, YAG media” value in the assay with Aspergillus fumigatus is given as 1 (1: ≥5 mg/L). For the same molecule, the “MIC grade, A. FUMIGATUS 210, YAG media” value against A. fumigatus 210 is recorded as 1 (1: ≥5 mg/L). In addition, in the assay on A. terreus 49, the “MIC grade, A. TERREUS 49, YAG media” value is listed as 1 (1: ≥5 mg/L). In the assay with Aspergillus flavus, the “MIC grade, A. FLAVUS, YAG media” value is 1 (1: ≥5 mg/L). In addition, the “MIC grade, A. NIGER, YAG media” value in the assay on Aspergillus niger was 1 (1: ≥5 mg/L). In addition, the “MIC grade, A. TERREUS, YAG media” value against Aspergillus terreus was 1 (1: ≥5 mg/L). In addition, the “MIC grade, C. ALBICANS, RPMI media” value in the assay on C. albicans is 1 (1: ≥20 mg/L). Besides, the “MIC grade, C. PARAPSILOSIS, RPMI media” value in the assay with C. parapsilosis is 1 (1: ≥20 mg/L). Also, the “MIC grade, C. TROPICALIS, RPMI media” value in the assay on C. tropicalis is 1 (1: ≥20 mg/L).

Take `CCOC(=O)c1ccc(C2=CSC(N)=NN2)cc1`: in the assay with Aspergillus fumigatus, the “MIC grade, A. FUMIGATUS, YAG media” value is 4 (4: <0.2 mg/L). Further, in the assay on A. fumigatus 210, the “MIC grade, A. FUMIGATUS 210, YAG media” value was 4 (4: <0.2 mg/L). Further, in the assay with A. terreus 49, the “MIC grade, A. TERREUS 49, YAG media” value is recorded as 3 (3: 0.2-1 mg/L). Further, in the assay on Aspergillus flavus, the “MIC grade, A. FLAVUS, YAG media” value is on record as 4 (4: <0.2 mg/L). Also, in the assay with Aspergillus niger, the “MIC grade, A. NIGER, YAG media” value is reported as 4 (4: <0.2 mg/L). Moreover, the “MIC grade, A. TERREUS, YAG media” value in the assay with Aspergillus terreus is 4 (4: <0.2 mg/L). For the same molecule, in the assay with C. albicans, the “MIC grade, C. ALBICANS, RPMI media” value is recorded as 3 (3: 1-5 mg/L). Further, the “MIC grade, C. PARAPSILOSIS, RPMI media” value in the assay on C. parapsilosis is on record as 4 (4: <1 mg/L). Moreover, in the assay with C. tropicalis, the “MIC grade, C. TROPICALIS, RPMI media” value is given as 2 (2: 5-20 mg/L).
